Experiments:
[1] = tested on: chemotherapy induced aplasia; assay: Human cohort study: effect of SSRI on chemotherapy-induced aplasia after autologous HSCT (FIG. 6); type: in vivo; conditions: patients at the time of autologous HSCT after myeloablative chemotherapy, versus matched controls not under SSRI
Source text: FIG. 6. Human cohort study (effect of SSRI on chemotherapy induced aplasia). A reduced duration of aplasia is observed in patients treated with SSRI at the time of autologous HSCT (x), in comparison with the duration of aplasia observed for patients having not been under SSRI medication (+).
In order to evaluate the impact of treatment with SSRI on chemotherapy-induced aplasia, data of all patients benefiting from autologous hematopoietic stem cell transplantation (HSCT) from 2010 to 2017 in the hematology department of Necker Hospital, Paris, France were screened. Data from 22 patients who were under therapy with SSRI for usual indications at the time of autologous HSCT retrospectively reviewed, and compared with 66 control patients (3 controls per patient) matched for confounding factors (age, sex, disease, response of disease before therapy, conditioning regimen, date of transplant and number of CD34+ cells injected). It is observed a reduced duration of aplasia (a criterion of which, commonly described in the art, being a number of polynuclear neutrophils below 500/mm^3) in patients who were treated with SSRI at the time of autologous HSCT.

[2] = tested on: anemia after sub-lethal irradiation in WT mice; assay: Sub-lethal irradiation anemia model in WT mice, fluoxetine versus placebo (FIG. 5A, 5B); type: in vivo, mouse; conditions: fluoxetine for 7 days followed by sub-lethal irradiation
[3] = tested on: irradiation-induced cytopenia in WT C57BL/6 mice; assay: Sub-lethal irradiation-induced cytopenia in mice: SSRI, hematopoietic growth factor or both (FIG. 7, 8, 9, Table 1); type: in vivo, mouse; conditions: At Day 17 from sublethal irradiation
[4] = tested on: CD71+/TER119+ population in Tph1+/- mice; assay: Sub-lethal irradiation in Tph1+/- mice, fluoxetine versus placebo, erythroid precursor immunophenotyping (FIG. 5C, 5D); type: in vivo, mouse; conditions: starting on day 7 following sub-lethal irradiation, compared to placebo
[5] = tested on: erythroid cells generated from CD34+ cord blood progenitor cells; assay: Human cord blood erythroid in vitro cell culture, erythroid proliferation (FIG. 3); type: cell-based; conditions: serum-free medium with EPO (2 mU/ml)+IL-3 (10 ng/ml)+SCF (50 ng/ml)
Method: FIG. 3. Human in vitro experiments (effect of 5-HT combined with EPO). To determine the role played by serotonin in erythroid proliferation, inventors used a well-defined culture system that closely mimics the proliferation and differentiation of erythroid precursors in vivo. […] Erythroid cells were generated from CD34^+ cord blood progenitor cells in serum-free medium in the presence of EPO (2 mU/ml)+IL-3 (10 ng/ml)+stem cell factor (SCF; 50 ng/ml). Throughout data are mean±SEM. Unpaired t-test and Pearson linear and non-linear regressions were used when appropriate. *P<0.05, **P<0.005, ***P<0.0005.
Erythroid cells were generated from CD34^+ cord blood progenitor cells in serum-free medium in the presence of EPO (2 mU/ml)+IL-3 (10 ng/ml)+stem cell factor (SCF; 50 ng/ml) as previously described in Zermati et al., (2000) Exp. Hematol. 28:885-894.

SMILES	duration (length) of aplasia [1]	day of rapid and significant increase in the number of reticulocytes [2]	day of normalization of Hb levels ([2]; placebo no normalization until day 22)	% of mice with Hemoglobin level ≤8 g/dl [3]	% of mice with Normal Hemoglobin level [3]	% of mice with Normal neutrophil number [3]	% of mice with Normal platelet level [3]	CD71+/TER119+ population [4]	erythroid proliferation [5]
CNCC[C@@H](Oc1ccc(C(F)(F)F)cc1)c1ccccc1 (racemic) [fluoxetine, (RS)-N-methyl-3-phenyl-3-propan-1-amine]	considerably reduced by at least two days	3 days	11 days	100%	0%	20%	0%	significant increase	–
NCCc1c[nH]c2ccc(O)cc12 [5-HT, 5-hydroxytryptamine]	–	–	–	–	–	–	–	–	significantly enhances erythroid proliferation
Cn1c2c(c3ccccc31)CCNCC2 [PNU 22394]	–	–	–	–	–	–	–	–	significantly enhances erythroid proliferation
